Data as given in patent publication US9120804B2, “8-substituted 2-amino-[1,2,4] triazolo [1, 5-A] pyrazines as Syk tryrosine kinase inhibitors and GCN2 serin kinase inhibitors” (Merck Patent GmbH, priority 2012, dated 2015).
pIC50: −log10 of the molar value.

Biological target: T1, SYK (Homo sapiens, UniProt P43405)
T1 construct: 2.5 nM SYK, 400 nM Biotin-Aha-Aha-KEDPDYEWPSAKK
Test: SYK flash plate assay (enzyme assay)
Assay type: biochemical
Summary of the method: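 Radiometric Flashplate format: biotinylated peptide substrate (400 nM) and 33P-labelled ATP (10 μM) react with 2.5 nM enzyme for 1 hour at 30 °C in Hepes buffer, pH 7.5. After EDTA quench and washing, counts are taken; staurosporine defines non-specific signal, and IC50 values are derived.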

| pIC50 | SMILES |
| --- | --- |
| > 7.00 | CC1(C(N)=O)CCN(c2nccn3nc(Nc4ccc5c(c4)NC(=O)C5(C)C)nc23)C1 (stereo not shown) [E75, 1-[2-(3,3-dimethyl-2-oxo-2,3-dihydro-1H-indol-6-ylamino)-[1,2,4]triazolo[1,5-a]pyrazin-8-yl]-3-methyl-pyrrolidine-3-carboxylic acid amide] |
| > 7.00 | CC1(C)C(=O)Nc2cc(Nc3nc4c(-c5c[nH]c6ccccc56)nccn4n3)ccc21 [E76, 6-[8-(1H-indol-3-yl)-[1,2,4]triazolo[1,5-a]pyrazin-2-ylamino]-3,3-dimethyl-1,3-dihydro-indol-2-one] |
| > 7.00 | CC1(C)CCNc2cc(Nc3nc4c(N5CCC6(CC5)CNC(=O)C6)nccn4n3)ccc21 [E77, 8-[2-(4,4-dimethyl-1,2,3,4-tetrahydro-quinolin-7-ylamino)-[1,2,4]triazolo[1,5-a]pyrazin-8-yl]-2,8-diaza-spiro[4.5]decan-3-one] |
| 6.52 to 7.00 | CN1[C@@H]2CC[C@H]1C[C@@H](Nc1nccn3nc(Nc4ccc5c(c4)NC(=O)C5(C)C)nc13)C2 [E78, 3,3-dimethyl-6-[8-((1R,3R,5S)-8-methyl-8-aza-bicyclo[3.2.1]oct-3-ylamino)-[1,2,4]triazolo[1,5-a]pyrazin-2-ylamino]-1,3-dihydro-indol-2-one] |
| 5.52 to 6.52 | CC1(C)C(=O)Nc2cc(Nc3nc4c(NCC5CCCNC5)nccn4n3)ccc21 (stereo not shown) [E79, 3,3-dimethyl-6-{8-[(piperidin-3-ylmethyl)-amino]-[1,2,4]triazolo[1,5-a]pyrazin-2-ylamino}-1,3-dihydro-indol-2-one] |
| > 7.00 | COc1ccc2c(c1)CCN2c1nccn2nc(Nc3ccc4c(c3)NC(=O)C4(C)C)nc12 [E81, 6-[8-(5-methoxy-2,3-dihydro-indol-1-yl)-[1,2,4]triazolo[1,5-a]pyrazin-2-ylamino]-3,3-dimethyl-1,3-dihydro-indol-2-one] |
| 4.30 to 5.52 | CC1(C)C(=O)Nc2cc(Nc3nc4c(O[C@@H]5CN[C@@H](c6ccccc6C(F)(F)F)C5)nccn4n3)ccc21 [E82, 3,3-dimethyl-6-{8-[(3S,5R)-5-(2-trifluoroinethyl-phenyl)-pyrrolidin-3-yloxy]-[1,2,4]triazolo[1,5-a]pyrazin-2-ylamino}-1,3-dihydro-indol-2-one] |
| 5.52 to 6.52 | COCC1CCCN1c1nccn2nc(Nc3ccc4c(c3)NC(=O)C4(C)C)nc12 (stereo not shown) [E83, 6-[8-(2-methoxymethyl-pyrrolidin-1-yl)-[1,2,4]triazolo[1,5-a]pyrazin-2-ylamino]-3,3-dimethyl-1,3-dihydro-indol-2-one] |
| 4.30 to 5.52 | CC1(C)C(=O)Nc2cc(Nc3nc4c(N5C[C@H](OC=O)C[C@@H]5c5ccccc5C(F)(F)F)nccn4n3)ccc21 [E85, formic acid (3R,5R)-1-[2-(3,3-dimethyl-2-oxo-2,3-dihydro-1H-indol-6-ylamino)-[1,2,4]triazolo[1,5-a]pyrazin-8-yl]-5-(2-trifluoromethyl-phenyl)-pyrrolidin-3-yl ester] |
| 6.52 to 7.00 | CC1(C)CCNc2cc(Nc3nc4c(N5CC[C@]6(CNC(=O)C6)C5)nccn4n3)ccc21 [E86, (S)-7-[2-(4,4-dimethyl-1,2,3,4-tetrahydro-quinolin-7-ylamino)-[1,2,4]triazolo[1,5-a]pyrazin-8-yl]-2,7-diaza-spiro[4.4]nonan-3-one] |
| > 7.00 | CC1(C)C(=O)Nc2cc(Nc3nc4c(N5CCC6(CCNC6)C5)nccn4n3)ccc21 (stereo not shown) [E87, 6-[8-(2,7-diaza-spiro[4.4]non-2-yl)-[1,2,4]triazolo[1,5-a]pyrazin-2-ylamino]-3,3-dimethyl-1,3-dihydro-indol-2-one] |
| > 7.00 | CN(C)c1nccn2nc(Nc3ccc4c(c3)NC(=O)C4(C)C)nc12 [E88, 6-(8-dimethylamino-[1,2,4]triazolo[1,5-a]pyrazin-2-ylamino)-3,3-dimethyl-1,3-dihydro-indol-2-one] |
| 5.52 to 6.52 | CN(C)CCN(C)c1nccn2nc(Nc3ccc4c(c3)NC(=O)C4(C)C)nc12 [E89, 6-{8-[(2-dimethylamino-ethyl)-methyl-amino]-[1,2,4]triazolo[1,5-a]pyrazin-2-ylamino}-3,3-dimethyl-1,3-dihydro-indol-2-one] |
| 5.52 to 6.52 | CN(CCc1ccccn1)c1nccn2nc(Nc3ccc4c(c3)NC(=O)C4(C)C)nc12 [E90, 3,3-dimethyl-6-{8-[methyl-(2-pyridin-2-yl-ethyl)-amino]-[1,2,4]triazolo[1,5-a]pyrazin-2-ylamino}-1,3-dihydro-indol-2-one] |
| > 7.00 | CC1(C)C(=O)Nc2cc(Nc3nc4c(NCC5CCNCC5)nccn4n3)ccc21 [E91, 3,3-dimethyl-6-{8-[(piperidin-4-ylmethyl)-amino]-[1,2,4]triazolo[1,5-a]pyrazin-2-ylamino}-1,3-dihydro-indol-2-one] |
| > 7.00 | CCN(CC)c1nccn2nc(Nc3ccc4c(c3)NC(=O)C4(C)C)nc12 [E92, 6-(8-diethylamino-[1,2,4]triazolo[1,5-a]pyrazin-2-ylamino)-3,3-dimethyl-1,3-dihydro-indol-2-one] |
| 5.52 to 6.52 | CC1(C)CC(=O)Nc2cc(Nc3nc4c(N5CCCC5c5ccccc5)nccn4n3)ccc21 (stereo not shown) [E93, 4,4-dimethyl-7-[8-(2-phenyl-pyrrolidin-1-yl)-[1,2,4]triazolo[1,5-a]pyrazin-2-ylamino]-3,4-dihydro-1H-quinolin-2-one] |

| pIC50 | SMILES |
| --- | --- |
| 5.52 to 6.52 | CC1(C)CC(=O)Nc2cc(Nc3nc4c(N5CC(O)CC5c5ccccc5)nccn4n3)ccc21 (stereo not shown) [E96, 7-[8-(4-hydroxy-2-phenyl-pyrrolidin-1-yl)-[1,2,4]triazolo[1,5-a]pyrazin-2-ylamino]-4,4-dimethyl-3,4-dihydro-1H-quinolin-2-one] |
| > 7.00 | CC1(C)CNc2cc(Nc3nc4c(N5CCCCCC5)nccn4n3)ccc21 [E99, (8-azepan-1-yl-[1,2,4]triazolo[1,5-a]pyrazin-2-yl)-(3,3-dimethyl-2,3-dihydro-1H-indol-6-yl)-amine] |
| 5.52 to 6.52 | CC1(C)CN(c2nccn3nc(Nc4ccc5c(c4)NC(=O)C5(C)C)nc23)c2cc(Cl)ccc21 [E100, 6-[8-(6-chloro-3,3-dimethyl-2,3-dihydro-indol-1-yl)-[1,2,4]triazolo[1,5-a]pyrazin-2-ylamino]-3,3-dimethyl-1,3-dihydro-indol-2-one] |
| > 7.00 | CC1(C)CCNc2cc(Nc3nc4c(N5CC[C@@]6(CNC(=O)C6)C5)nccn4n3)ccc21 [E101, (R)-7-[2-(4,4-dimethyl-1,2,3,4-tetrahydro-quinolin-7-ylamino)-[1,2,4]triazolo[1,5-a]pyrazin-8-yl]-2,7-diaza-spiro[4.4]nonan-3-one] |
| > 7.00 | CC1(C)C(=O)Nc2cc(Nc3nc4c(N5CCc6ccc(N)cc65)nccn4n3)ccc21 [E102, 6-[8-(6-amino-2,3-dihydro-indol-1-yl)-[1,2,4]triazolo[1,5-a]pyrazin-2-ylamino]-3,3-dimethyl-1,3-dihydro-indol-2-one] |
| 5.52 to 6.52 | CC(=O)NCCNc1nccn2nc(Nc3ccc4c(c3)NC(=O)C4(C)C)nc12 [E103, N-{2-[2-(3,3-dimethyl-2-oxo-2,3-dihydro-1H-indol-6-ylamino)-[1,2,4]triazolo[1,5-a]pyrazin-8-ylamino]-ethyl}-acetamide] |
| 4.30 to 5.52 | CC1(C)C(=O)Nc2cc(Nc3nc4c(NS(C)(=O)=O)nccn4n3)ccc21 [E104, N-[2-(3,3-dimethyl-2-oxo-2,3-dihydro-1H-indol-6-ylamino)-[1,2,4]triazolo[1,5-a]pyrazin-8-yl]-methanesulfonamide] |
| > 7.00 | CC1(C)C(=O)Nc2cc(Nc3nc4c(N5CC[C@]6(CCNC6)C5)nccn4n3)ccc21 [E105, 6-[(S)-8-(2,7-diaza-spiro[4.4]non-2-yl)-[1,2,4]triazolo[1,5-a]pyrazin-2-ylamino]-3,3-dimethyl-1,3-dihydro-indol-2-one] |
| > 7.00 | CC1(C)C(=O)Nc2cc(Nc3nc4c(N5CC[C@@]6(CCNC6)C5)nccn4n3)ccc21 [E106, 6-[(R)-8-(2,7-diaza-spiro[4.4]non-2-yl)-[1,2,4]triazolo[1,5-a]pyrazin-2-ylamino]-3,3-dimethyl-1,3-dihydro-indol-2-one] |
| 5.52 to 6.52 | CC1(C)C(=O)Nc2cc(Nc3nc4c(N5CCCc6ccccc65)nccn4n3)ccc21 [E108, 6-[8-(3,4-dihydro-2H-quinolin-1-yl)-[1,2,4]triazolo[1,5-a]pyrazin-2-ylamino]-3,3-dimethyl-1,3-dihydro-indol-2-one] |
| 5.52 to 6.52 | CC1(C)C(=O)Nc2cc(Nc3nc4c(NCCN)nccn4n3)ccc21 [E110, 6-[8-(2-amino-ethylamino)-[1,2,4]triazolo[1,5-a]pyrazin-2-ylamino]-3,3-dimethyl-1,3-dihydro-indol-2-one] |
| 5.52 to 6.52 | CC1(C)C(=O)Nc2cc(Nc3nc4c(NS(=O)(=O)c5ccccc5)nccn4n3)ccc21 [E111, N-[2-(3,3-dimethyl-2-oxo-2,3-dihydro-1H-indol-6-ylamino)-[1,2,4]triazolo[1,5-a]pyrazin-8-yl]-benzenesulfonamide] |
| > 7.00 | CC1(C)C(=O)Nc2cc(Nc3nc4c(N5CCC6(CNC(=O)O6)C5)nccn4n3)ccc21 (stereo not shown) [E112, 3,3-dimethyl-6-[8-(2-oxo-1-oxa-3,7-diaza-spiro[4.4]non-7-yl)-[1,2,4]triazolo[1,5-a]pyrazin-2-ylamino]-1,3-dihydro-indol-2-one] |
| > 7.00 | CC1(C)C(=O)Nc2cc(Nc3nc4c(N5CCCC(C(N)=O)C5)nccn4n3)ccc21 (stereo not shown) [E113, 1-[2-(3,3-dimethyl-2-oxo-2,3-dihydro-1H-indol-6-ylamino)-[1,2,4]triazolo[1,5-a]pyrazin-8-yl]-piperidine-3-carboxylic acid amide] |
| > 7.00 | Cn1ncc2cc(-c3nccn4nc(Nc5ccc6c(c5)NC(=O)C6(C)C)nc34)ccc21 [E114] |
| > 7.00 | CC1(C)C(=O)Nc2cc(Nc3nc4c(-c5cnc6ccccc6c5)nccn4n3)ccc21 [E115, 3,3-Dimethyl-6-(8-quinolin-3-yl-[1,2,4]triazolo[1,5-a]pyrazin-2-ylamino)-1,3-dihydro-indol-2-one] |
| > 7.00 | CC1(C)C(=O)Nc2cc(Nc3nc4c(-c5cnc6c(c5)CCCO6)nccn4n3)ccc21 [E116, 6-[8-(3,4-Dihydro-2H-pyrano[2,3-b]pyridin-6-yl)-[1,2,4]triazolo[1,5-a]pyrazin-2-ylamino]-3,3-dimethyl-1,3-dihydro-indol-2-one] |
